IC50 data for 15 compounds are collected here from BindingDB's records for doi:10.1021/jm101238d (University of Salerno, 2011).

Where only a bound is given, the exact number is not on record here.

Chain of Prostaglandin E synthase, mPGES-1 (Homo sapiens) (O14684 whole entry, looked up): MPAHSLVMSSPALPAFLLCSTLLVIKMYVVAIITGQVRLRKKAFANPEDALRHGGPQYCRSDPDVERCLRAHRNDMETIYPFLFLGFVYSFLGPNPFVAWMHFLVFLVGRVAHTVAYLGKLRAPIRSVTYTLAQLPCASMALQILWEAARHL

This experiment addresses Prostaglandin E synthase, mPGES-1 (Homo sapiens) (UniProt O14684). The experiment can be described thus: Inhibition of Prostaglandin E2 synthase-1 in IL1-beta stimulated microsomal fraction of human A549 cell assessed as PGE2 level by RP-HPLC.
Regarding `c1ccc(CCCn2cc(-c3ccc(-c4ccc(Oc5ccccc5)cc4)cc3)nn2)cc1` [4-(4'-Phenoxy-biphenyl-4-yl)-1-(3-phenyl-propyl)-1H-[1,2,3]triazole], the IC50 – broadly, the midpoint of a concentration-inhibition curve – is over 30 µM.

With `Cc1ccccc1CCn1cc(-c2ccc(-c3ccccc3COc3cccc4ccccc34)cc2)nn1` [4-[2'-(Naphthalen-1-yloxymethyl)-biphenyl-4-yl]-1-(2-o-tolyl-ethyl)-1H-[1,2,3]triazole], the IC50 is over 30 µM.

Consider `FC(F)(F)c1ccc(Cl)c(OCc2ccccc2-c2ccc(-c3cn(CCCc4ccccc4)nn3)cc2)c1` [4-[2'-(2-Chloro-5-trifluoromethyl-phenoxymethyl)-biphenyl-4-yl]-1-(3-phenyl-propyl)-1H-[1,2,3]triazole], for which the IC50 was over 30 µM.

`O=C(O)c1ccc(S(=O)(=O)n2cc(-c3ccc(-c4ccccc4COc4cccc5ccccc45)cc3)nn2)cc1` [4-{4-[2'-(Naphthalen-1-yloxymethyl)-biphenyl-4-yl]-1,2,3]triazole-1-sulfonyl}-benzoic acid]: the IC50 is over 30 µM. Regarding `Oc1ccc(-c2ccc(-c3cn(CCCc4ccccc4)nn3)cc2)cc1` [4'-[1-(3-Phenyl-propyl)-1H-[1,2,3]triazol-4-yl]-biphenyl-4-ol], the IC50 was over 30 µM. The same measure for `O=C(O)c1ccc(Cn2cc(-c3ccc(-c4ccccc4)cc3)nn2)c([N+](=O)[O-])c1` [4-(4-Biphenyl-4-yl-[1,2,3]triazol-1-ylmethyl)-3-nitro-benzoic acid]: 3.2 µM; for `Cc1ccccc1CCn1cc(-c2ccc(-c3ccc(N)cc3)cc2)nn1` [4'-[1-(2-o-Tolyl-ethyl)-1H-[1,2,3]triazol-4-yl]-biphenyl-4-ylamine]: over 30 µM; for `c1ccc(CCCn2cc(-c3ccc(-c4cc5ccccc5c5ccccc45)cc3)nn2)cc1` [4-(4-Phenanthren-9-yl-phenyl)-1-(3-phenyl-propyl)-1H-[1,2,3]triazole]: over 30 µM. With `Cc1ccccc1CCn1cc(-c2ccc(-c3ccccc3COc3cc(C(F)(F)F)ccc3Cl)cc2)nn1` [4-[2'-(2-Chloro-5-trifluoromethyl-phenoxymethyl)-biphenyl-4-yl]-1-(2-o-tolyl-ethyl)-1H-[1,2,3]triazole], the IC50 was over 30 µM. As for `Oc1cccc(-c2ccc(-c3cn(CSc4ccccc4)nn3)cc2)c1` [4'-(1-Phenylsulfanylmethyl-1H-[1,2,3]triazol-4-yl)-biphenyl-3-ol], the IC50 was over 30 µM. For `c1ccc(CCCn2cc(-c3ccc(-c4ccccc4COc4cccc5ccccc45)cc3)nn2)cc1` [4-[2'-(Naphthalen-1-yloxymethyl)-biphenyl-4-yl]-1-(3-phenyl-propyl)-1H-[1,2,3]triazole], the IC50 is over 30 µM. For the compound `Oc1ccc(-c2ccc(-c3cn(CSc4ccccc4)nn3)cc2)cc1` [4'-(1-Phenylsulfanylmethyl-1H-[1,2,3]triazol-4-yl)-biphenyl-4-ol], the IC50 was over 30 µM.

For the compound `O=Cc1ccc(-c2c(Cc3ccccc3)nnn2CSc2ccccc2)cc1` [4-(5-Benzyl-3-phenylsulfanylmethyl-3H-[1,2,3]triazol-4-yl)-benzaldehyde], the IC50 was over 30 µM. `O=C(OCc1cn(CSc2ccccc2)nn1)c1ccccc1` [Benzoic acid 1-Phenylsulfanylmethyl-1H-[1,2,3]Triazol-4-ylmethyl Ester]: the IC50 is over 30 µM. For the compound `CN(C)c1cccc2c(S(=O)(=O)Nc3ccc(-c4ccc(-c5cn(CCCc6ccccc6)nn5)cc4)cc3)cccc12` [5-Dimethylamino-naphthalene-1-sulfonic acid{4'-[1-(3-phenyl-propyl)-1H-[1,2,3]triazol-4-yl]-biphenyl-4-yl}-amide], the IC50 was over 30 µM.
